Measured values published in article PMC3835519 (Aquatic toxicology (Amsterdam, Netherlands), 2012).
Where two headings read alike, the source gives them in different places.

Tests used:
[1] = assay type: in vitro ADME, Cyprinus carpio; details: S9 of smaller (likely younger, juvenile) carp population; mean ± SD, N = 3
[2] = assay type: in vitro ADME, Mus musculus
[3] = assay type: in vitro ADME, Chelydra serpentina serpentina; details: snapping turtle S9; 120 min; 1 mg protein
[4] = test system: purified porcine esterases; details: ref Roberts et al., 2011a, b; cited from earlier work
[5] = assay type: in vitro ADME, Pimephales promelas; details: all three fathead minnow subcellular fractions; significant = three times the background

SMILES	metabolic rate of TBB [1] [pmoles TBB mg^−1 min^−1]	difference in TBB metabolism between age classes ([2]; S9, 4-month-old vs 2-month-old male mice)	metabolism of TBB (loss of parent vs heat-inactivated control) [3]	metabolism by esterases [4]	TBMB metabolite peaks in chromatograms of incubations [5]	TBMB metabolite peaks in chromatograms of incubations ([2]; mouse incubations, significant = three times the background)
CCCCC(CC)COC(=O)c1cc(Br)c(Br)c(Br)c1Br (stereo not drawn) [TBB, 2-ethylhexyl 2,3,4,5-tetrabromobenzoate]	1.30 ± 0.62	No difference	not metabolized	rapidly metabolize	–	–
COC(=O)c1cc(Br)c(Br)c(Br)c1Br [TBMB, 2,3,4,5-tetrabromomethylbenzoate]	–	–	–	–	Significant peaks	not significant
